Assay results reported in patent US7304075B2, “Stabilized liquid preparation” (Daiichi Pharmaceutical Co., Ltd., priority 2001, dated 2007).

Key:
Assay type in all cases: physicochemical
[1] = Water solubility of free sitafloxacin; settings: around a neutral pH
[2] = Light stability of aqueous sitafloxacin solution (white fluorescent tube irradiation); settings: sodium chloride-containing aqueous solution adjusted to pH 4.0, versus aqueous solutions without sodium chloride
[3] = as above; settings: 1 mg/ml aqueous solution; for Transmission (%): T % at 430 nm
Protocol: To 160 ml of WFI were added 213.2 mg of sitafloxacin (active ingredient: 200 mg) and a varied amount of sodium chloride (0 mg for control, 20 mg, 100 mg, 200 mg, 1 g, 2 g, 4 g, 6 g or 10 g) or, for comparison, 10 g of D-sorbitol. Further, 5 ml of 0.1 mol/l aqueous hydrochloric acid was slowly added, followed by stirring for 30 mintues to dissolve sitafloxacin and sodium chloride. The nine kinds of solution each was adjusted to pH 4.0 by addition of 0.1 mol/l aqueous sodium hydroxide, and WFI was added to make 200 ml. Ten milliliter portions of the resulting aqueous solution were put into colorless ampules.
• (1) pH: Measured with a pH meter (F-16, supplied by Horiba, Ltd.). • (2) Osmotic pressure: Measured with an osmometer (3C2, supplied by Advanced Instrument, Inc.). • (3) (Light) Transmission: A transmission at 430 nm was measured with a Beckman DU-640 spectrophotometer. • (4) Retention: The content of sitafloxacin of the irradiated samples was determined as follows to calculate retention (%).
A test solution was prepared by accurately measuring 2 ml of a sample, adding an accurately measured equal amount of an internal standard solution, adding a mobile phase to make 20 ml, and mixing a 5 ml aliquot of the resulting solution with the mobile phase to make 20 ml.
A standard sitafloxacin solution was prepared by dissolving sitafloxacin for quantitative analysis (whose water content had been measured previously) precisely weighing about 0.1 g in the mobile phase to make a solution accurately measuring 100 ml, adding to an accurate 5 ml aliquot of the solution an accurately measured equal amount of the internal standard solution, adding the mobile phase to make 100 ml, and after thoroughly stirring, filtering the solution through a membrane filter. The test solution and the standard solution each measuring 10 μl were subjected to liquid chromatography under the following conditions. Ratios of the peak areas of sitafloxacin of the test solution or the standard solution to the peak area of the internal standard, QT and QS, were obtained, and the sitafloxacin content was determined according to the following equation. Sitafloxacin (C19H18ClF2N3O3) content (% to nominal amount)=amount (mg) of sitafloxacin for quantitative analysis (on dry basis)×(QT/QS)×(¼)×( 1/25)×100 wherein;
A standard solution was prepared by weighing 0.100 g of sitafloxacin for quantitative analysis (whose water content had been measured previously), adding a mobile phase to accurately make 100 ml, and adding the mobile phase to an accurately measured aliquot (1 ml) of the solution to make 100 ml.
A 10 μl aliquot of a sample and the standard solution was subjected to liquid chromatography under the following conditions, and the peak areas of the respective solutions were calculated by automatic integration to obtain the total content of sitafloxacin related substances.
Each of the 1 mg/ml aqueous solutions of sitafloxacin was irradiated with light of a white fluorescent tube (2500 lux×5 days: 300,000 lux·hr), and the same measurements as described above were repeated.

[4] = Initial, 5% D-sorbitol in place of sodium chloride
[5] = Irradiated (300,000 lux·hr), 5% D-sorbitol in place of sodium chloride
[6] = Irradiated (300,000 lux·hr), NaCl 0%
[7] = Irradiated (300,000 lux·hr), NaCl 0.01%
[8] = Irradiated (300,000 lux·hr), NaCl 0.05%
[9] = Irradiated (300,000 lux·hr), NaCl 0.10%
[10] = Irradiated (300,000 lux·hr), NaCl 0.50%
[11] = Irradiated (300,000 lux·hr), NaCl 1.0%
[12] = Irradiated (300,000 lux·hr), NaCl 2.0%
[13] = Irradiated (300,000 lux·hr), NaCl 3.0%
[14] = Irradiated (300,000 lux·hr), NaCl 5.0%

SMILES: N[C@@H]1CN(c2c(F)cc3c(=O)c(C(=O)O)cn([C@@H]4C[C@@H]4F)c3c2Cl)CC12CC2 [sitafloxacin, (−)-7-[(7S)-7-amino-5-azaspiro[2.4]heptan-5-yl]-8-chloro-6-fluoro-1-[(1R,2S)-2-fluoro-1-cyclopropyl]-1,4-dihydro-4-oxo-3-quinolinecarboxylic acid]
- water solubility [1]: poor
- formation of related substances due to irradiation or the reduction in pH [2]: more suppressed
- Total Related substances (%) [3, 4]: 0.30%
- pH [3, 4]: 4.3
- Transmission (%) [3, 4]: 77.2%
- Total Related substances (%) ([3]; Initial, NaCl 0%): 0.31%
- pH ([3]; Initial, NaCl 0%): 4.2
- Transmission (%) ([3]; Initial, NaCl 0%): 77.6%
- Total Related substances (%) ([3]; Initial, NaCl 0.01%): 0.30%
- pH ([3]; Initial, NaCl 0.01%): 4.4
- Transmission (%) ([3]; Initial, NaCl 0.01%): 77.1%
- Total Related substances (%) ([3]; Initial, NaCl 0.05%): 0.29%
- pH ([3]; Initial, NaCl 0.05%): 4.3
- Transmission (%) ([3]; Initial, NaCl 0.05%): 76.8%
- Total Related substances (%) ([3]; Initial, NaCl 0.10%): 0.26%
- pH ([3]; Initial, NaCl 0.10%): 4.3
- Transmission (%) ([3]; Initial, NaCl 0.10%): 76.7%
- Total Related substances (%) ([3]; Initial, NaCl 0.50%): 0.28%
- pH ([3]; Initial, NaCl 0.50%): 4.2
- Transmission (%) ([3]; Initial, NaCl 0.50%): 75.6%
- Total Related substances (%) ([3]; Initial, NaCl 1.0%): 0.30%
- pH ([3]; Initial, NaCl 1.0%): 4.3
- Transmission (%) ([3]; Initial, NaCl 1.0%): 74.7%
- Total Related substances (%) ([3]; Initial, NaCl 2.0%): 0.31%
- pH ([3]; Initial, NaCl 2.0%): 4.3
- Transmission (%) ([3]; Initial, NaCl 2.0%): 73.1%
- Total Related substances (%) ([3]; Initial, NaCl 3.0%): 0.30%
- pH ([3]; Initial, NaCl 3.0%): 4.3
- Transmission (%) ([3]; Initial, NaCl 3.0%): 72.8%
- Total Related substances (%) ([3]; Initial, NaCl 5.0%): 0.30%
- pH ([3]; Initial, NaCl 5.0%): 4.3
- Transmission (%) ([3]; Initial, NaCl 5.0%): 70.7%
- Retention (per Initial %) [3, 5]: 86.6%
- Total Related substances (%) [3, 5]: 5.90%
- pH [3, 5]: 3.5
- Transmission (%) [3, 5]: 56.8%
- Retention (per Initial %) [3, 6]: 84.2%
- Total Related substances (%) [3, 6]: 5.90%
- pH [3, 6]: 3.4
- Transmission (%) [3, 6]: 47.1%
- Retention (per Initial %) [3, 7]: 87.9%
- Total Related substances (%) [3, 7]: 5.21%
- pH [3, 7]: 3.7
- Transmission (%) [3, 7]: 52.8%
- Retention (per Initial %) [3, 8]: 91.7%
- Total Related substances (%) [3, 8]: 3.84%
- pH [3, 8]: 3.8
- Transmission (%) [3, 8]: 61.0%
- Retention (per Initial %) [3, 9]: 93.5%
- Total Related substances (%) [3, 9]: 3.02%
- pH [3, 9]: 3.8
- Transmission (%) [3, 9]: 64.4%
- Retention (per Initial %) [3, 10]: 94.2%
- Total Related substances (%) [3, 10]: 2.48%
- pH [3, 10]: 3.9
- Transmission (%) [3, 10]: 63.6%
- Retention (per Initial %) [3, 11]: 94.7%
- Total Related substances (%) [3, 11]: 2.02%
- pH [3, 11]: 3.9
- Transmission (%) [3, 11]: 62.6%
- Retention (per Initial %) [3, 12]: 94.0%
- Total Related substances (%) [3, 12]: 2.30%
- pH [3, 12]: 3.8
- Transmission (%) [3, 12]: 60.7%
- Retention (per Initial %) [3, 13]: 95.5%
- Total Related substances (%) [3, 13]: 2.01%
- pH [3, 13]: 3.9
- Transmission (%) [3, 13]: 61.0%
- Retention (per Initial %) [3, 14]: 94.8%
- Total Related substances (%) [3, 14]: 2.28%
- pH [3, 14]: 3.9
- Transmission (%) [3, 14]: 57.6%
